We go through five compounds from US10245328B2, “Gadolinium complex comprising DO3A-tranexamic acid conjugate” (KYUNGPOOK NATIONAL UNIVERSITY INDUSTRY-ACADEMIC COOPERATION …, priority 2014, dated 2019).

Data set [1] is described as follows: Relaxation rate measurement (R1, R2) in PBS and in PBS solution of HSA. It counts as physicochemical. To be noted: 293K; for R1 / R2: PBS pH 7.4, 64 MHz (1.5 T); for R1 in 0.67 mM HSA / R2 in 0.67 mM HSA: PBS solution of 0.67 mM HSA, 64 MHz. The procedure: T1 measurement is carried out using an inversion recovery method at 1.5 T (64 MHz) in a variable inverse time (TI). MR images are obtained for 35 different TI values in a range of 50 to 1750 ms. A T1 relaxation time is obtained from a nonlinear least-squares fit of a signal strength measured at each TI value. For a T2 CPMG (Carr-Purcell-Meiboon-Gill) pulse sequence measurement, the measurement is adapted to a multi spin-echo measurement. 34 images are obtained at 34 different echo time (TE) values in a range of 10 to 1900 ms. The T2 relaxation time is obtained from a nonlinear least-squares fit of mean pixel values for multi spin-echo measurement at each echo time. Next, a relaxation rate (R1 and R2) is calculated as an inverse of a relaxation time per mM. The determined relaxation time (T1 and T2) and relaxation rate (R1 and R2) are subjected to an image processing to get a relaxation time map and relaxation rate respectively.
For comparison between the complexes 2a-e, there is no noticeable difference in R1's. The measurement is carried out for two different media, that is, PBS (pH=7.4) and PBS solution of HAS in order to indicate which blood-pool effect is expressed by the complexes 2a-e.

Another data set relates to ICR mice. Put plainly: In vivo MR experiment, T1-weighted images after tail vein injection. To be noted: for signal enhancement / signal strength at the liver / liver-specificity / class of contrast agent: 0.1 mmol Gd/kg i.v.; for signal enhancement / signal strength at the liver: 1.5 T, initial 1 hour; for liver-specificity / class of contrast agent: in vivo MR images of mice. The procedure:
The in vivo experiment is executed with compliance to a regulation of Animal Research Committee of KNU. 29-31 g weight 6-weeks male ICR mice are used. […] The measurement is carried out before and after the injection of the complexes 2a-e through the tail vein. […] After the mice wake from the anesthesia after each measurement, the mice were placed in a cage capable of free access to feed and food. For this measurement, the animals are held at about 37° C. using a warm water blanket. MR images are taken using a 1.5 T MR unit (GE Healthcare, Milwaukee, Wis.) with a manual RF coil for a small animal. The coil may be of a receiver type having a 50 mm inner diameter. […] MR images are collected for 24 h after the injection. Anatomical positions having an improved contrast are set for a liver, a bile duct, and a kidney on (post contrast) MR images. For quantitative measurements, a signal intensity in a region of interest (ROI) is measured using Advantage Window software (GE medical, U.S.). The CNR is calculated using a following equation (1): […] SNR is a […].

A short description of data set [2]: Stability against hydrolysis in H2O (HPLC, 197 nm). The data set is classed as physicochemical. The settings on record: for HPLC peak 2.38 min, 2b (trans) / HPLC peak 2.88 min, 2b (cis) / HPLC peak 3.16 min / HPLC peak 3.84 min / HPLC peak 7.66 min / HPLC peak 24.42 min / HPLC peak 28.12 min / HPLC peak 29.92 min / HPLC peak 34.46 min, Acid / HPLC peak 49.58 min: 2b in water; for HPLC peak 6.54 min, 2d / HPLC peak 7.79 min / HPLC peak 8.86 min / HPLC peak 33.15 min / HPLC peak 40.33 min / HPLC peak 40.81 min / HPLC peak 43.77 min / HPLC peak 44.51 min / HPLC peak 46.56 min: 2d in water; for HPLC peak 2.32 min / HPLC peak 4.98 min / HPLC peak 17.21 min, 2e / HPLC peak 23.70 min, 2e isomer / HPLC peak 40.63 min / HPLC peak 42.14 min / HPLC peak 43.00 min / HPLC peak 44.95 min / HPLC peak 45.93 min / HPLC peak 46.64 min / HPLC peak 48.46 min / HPLC peak 49.36 min: 2e in water. The procedure: The contrast agents of the present series 100 mg are dissolved in distilled water 10 mL and is maintained as they are for 72 hours at 50° C. Using HPLC, O.D. (Optical Density) values are read at 197 nm and the stability of the agents is determined. The substances at each retention time are examined using LC Mass Spectroscopy for accurate identification of decomposed products.

With `O=C([O-])CN1CCN(CC(=O)[O-])CCN(CC(=O)NCC2CCC(C(=O)O)CC2)CCN(CC(=O)[O-])CC1.[Gd+3]` (stereo not drawn) [2b], in data set [1], the R1 is 3.87 ± 0.11 mM⁻¹ s⁻¹, the R2 was 3.98 ± 0.26 mM⁻¹ s⁻¹, the “R1 in 0.67 mM HSA” value turned out to be 3.98 ± 0.14 mM⁻¹ s⁻¹ and the “R2 in 0.67 mM HSA” value is 5.43 ± 0.28 mM⁻¹ s⁻¹. The “signal enhancement / signal strength at the liver” value with ICR mice (ICR mice) is “strong signal enhancement”. Also, in the data set with ICR mice, the “liver-specificity / class of contrast agent” value (“liver-specificity / class” below) was “strong specificity enhancement”. In data set [2] (50° C./3 day), the “HPLC peak 2.38 min, 2b (trans)” value came out at 93.4%; the “HPLC peak 2.88 min, 2b (cis)” value is given as 2.87%; the “HPLC peak 3.16 min” value is reported as 0.33%; the “HPLC peak 3.84 min” value came to 0.38%. In addition, in data set [2] (50° C./3 day), the “HPLC peak 7.66 min” value worked out at 0.06%, the “HPLC peak 24.42 min” value is reported as 0.19%, the “HPLC peak 28.12 min” value was determined as 0.64% and the “HPLC peak 29.92 min” value was found to be 0.10%. Also, in data set [2] (50° C./3 day), the “HPLC peak 34.46 min, Acid” value is 0.03% and the “HPLC peak 49.58 min” value came to 0.21%. Further, in data set [2] (initial), the “HPLC peak 2.38 min, 2b (trans)” value was 92.80%; the “HPLC peak 2.88 min, 2b (cis)” value was 3.35%; the “HPLC peak 3.16 min” value came out at 0.30%; the “HPLC peak 3.84 min” value came to 0.35%. In addition, in data set [2] (initial), the “HPLC peak 7.66 min” value is given as 0.12%, the “HPLC peak 24.42 min” value is given as 0.06%, the “HPLC peak 28.12 min” value is listed as 0.56% and the “HPLC peak 29.92 min” value is listed as 0.09%. Besides, in data set [2] (initial), the “HPLC peak 34.46 min, Acid” value is listed as 0.34% and the “HPLC peak 49.58 min” value was 0.19%.
For the compound `NCCNC(=O)C1CCC(CNC(=O)CN2CCN(CC(=O)[O-])CCN(CC(=O)[O-])CCN(CC(=O)[O-])CC2)CC1.[Gd+3]` (stereo not drawn) [2c], in data set [1], the R1 was found to be 3.68 ± 0.13 mM⁻¹ s⁻¹, the R2 was 3.62 ± 0.26 mM⁻¹ s⁻¹, the “R1 in 0.67 mM HSA” value amounted to 3.74 ± 0.07 mM⁻¹ s⁻¹ and the “R2 in 0.67 mM HSA” value was found to be 4.10 ± 0.07 mM⁻¹ s⁻¹. Further, the “signal enhancement / signal strength at the liver” value with ICR mice (ICR mice) is listed as “strong signal enhancement”. In addition, in the data set on ICR mice, the “liver-specificity / class” value is given as “strong specificity enhancement”. Moreover, in data set [2] (2c in water, 50° C./3 day), the “HPLC peak 2.58%” value was 0.27%; the “HPLC peak 7.61%” value was determined as 0.14%; the “HPLC peak 19.86%” value came to 2.30%; the “HPLC peak 2.31 min, 2b” value was found to be 0.11%. Moreover, in data set [2] (2c in water, 50° C./3 day), the “HPLC peak 9.10 min, 2c (trans)” value came to 93.11%; the “HPLC peak 10.60 min, 2c (cis)” value amounted to 1.19%; the “HPLC peak 40.68 min, 1c” value was 0.002%; the “HPLC peak 45.53 min” value worked out at 0.18%. For the same compound, the “HPLC peak 49.81 min” value in data set [2] (2c in water, 50° C./3 day) amounted to 0.11%. In data set [2] (2c in water, initial), the “HPLC peak 2.58%” value is 0.27%; the “HPLC peak 7.61%” value amounted to 0.14%; the “HPLC peak 2.31 min, 2b” value is given as 0.06%; the “HPLC peak 9.10 min, 2c (trans)” value is 91.05%. For the same compound, in data set [2] (2c in water, initial), the “HPLC peak 10.60 min, 2c (cis)” value was found to be 1.35%; the “HPLC peak 40.68 min, 1c” value was 1.65%; the “HPLC peak 45.53 min” value amounted to 0.16%; the “HPLC peak 49.81 min” value is 0.09%.
On to `NC1CCC(NC(=O)CN2CCN(CC(=O)[O-])CCN(CC(=O)[O-])CCN(CC(=O)[O-])CC2)CC1.[Gd+3]` (stereo not drawn) [2d], for which, in data set [1], the R1 amounted to 3.94 ± 0.13 mM⁻¹ s⁻¹, the R2 turned out to be 3.68 ± 0.29 mM⁻¹ s⁻¹, the “R1 in 0.67 mM HSA” value was 3.91 ± 0.09 mM⁻¹ s⁻¹ and the “R2 in 0.67 mM HSA” value is 4.07 ± 0.09 mM⁻¹ s⁻¹. In addition, the “liver-specificity / class” value in the data set with ICR mice was “ECF contrast agent”. The “signal enhancement at the kidney and abdominal aorta” value in the data set with ICR mice (initially after 0.1 mmol Gd/kg i.v., ICR mice) was “strong signal enhancement”. Also, in data set [2] (50° C./3 day), the “HPLC peak 6.54 min, 2d” value turned out to be 90.10%; the “HPLC peak 7.79 min” value turned out to be 0.36%; the “HPLC peak 8.86 min” value is recorded as 0.30%; the “HPLC peak 33.15 min” value is reported as 1.12%. Further, in data set [2] (50° C./3 day), the “HPLC peak 40.33 min” value came out at 0.007%, the “HPLC peak 40.81 min” value was found to be 0.14%, the “HPLC peak 43.77 min” value is recorded as 0.25% and the “HPLC peak 44.51 min” value was found to be 0.22%. Also, the “HPLC peak 46.56 min” value in data set [2] (50° C./3 day) is given as 0.18%. Moreover, in data set [2] (initial), the “HPLC peak 6.54 min, 2d” value is given as 89.67%; the “HPLC peak 7.79 min” value is listed as 0.30%; the “HPLC peak 8.86 min” value is 0.30%; the “HPLC peak 33.15 min” value is listed as 1.20%. In data set [2] (initial), the “HPLC peak 40.33 min” value was determined as 0.16%, the “HPLC peak 40.81 min” value came out at 0.14%, the “HPLC peak 43.77 min” value came out at 0.27% and the “HPLC peak 44.51 min” value is recorded as 0.23%. In data set [2] (initial), the “HPLC peak 46.56 min” value is recorded as 0.19%.
Consider `O=C([O-])CN1CCN(CC(=O)[O-])CCN(CC(=O)NCC2CCCCC2)CCN(CC(=O)[O-])CC1.[Gd+3]` [2e], for which, in data set [1], the R1 turned out to be 4.49 ± 0.18 mM⁻¹ s⁻¹, the R2 was 4.52 ± 0.28 mM⁻¹ s⁻¹, the “R1 in 0.67 mM HSA” value was found to be 5.21 ± 0.23 mM⁻¹ s⁻¹ and the “R2 in 0.67 mM HSA” value is 6.22 ± 0.28 mM⁻¹ s⁻¹. In data set [2] (50° C./3 day), the “HPLC peak 2.32 min” value came out at 0.04%; the “HPLC peak 4.98 min” value is 0.07%; the “HPLC peak 17.21 min, 2e” value is reported as 94.66%; the “HPLC peak 23.70 min, 2e isomer” value was 1.57%. In addition, in data set [2] (50° C./3 day), the “HPLC peak 40.63 min” value was determined as 0.05%, the “HPLC peak 42.14 min” value is recorded as 0.05%, the “HPLC peak 43.00 min” value was 0.05% and the “HPLC peak 44.95 min” value was found to be 0.05%. For the same compound, in data set [2] (50° C./3 day), the “HPLC peak 45.93 min” value was 0.03%, the “HPLC peak 46.64 min” value worked out at 0.01%, the “HPLC peak 48.46 min” value is 0.03% and the “HPLC peak 49.36 min” value worked out at 0.18%. In data set [2] (initial), the “HPLC peak 2.32 min” value is given as 0.04%; the “HPLC peak 4.98 min” value came to 0.09%; the “HPLC peak 17.21 min, 2e” value is reported as 94.88%; the “HPLC peak 23.70 min, 2e isomer” value amounted to 1.36%. In addition, in data set [2] (initial), the “HPLC peak 40.63 min” value came out at 0.03%, the “HPLC peak 42.14 min” value came out at 0.01%, the “HPLC peak 43.00 min” value was determined as 0.05% and the “HPLC peak 44.95 min” value was determined as 0.05%. In data set [2] (initial), the “HPLC peak 45.93 min” value stood at 0.04%, the “HPLC peak 46.64 min” value amounted to 0.02%, the “HPLC peak 48.46 min” value is 0.03% and the “HPLC peak 49.36 min” value was 0.18%.
For the compound `CNC[C@H](O)[C@@H](O)[C@H](O)[C@H](O)CO.O=C([O-])CN1CCN(CC(=O)[O-])CCN(CC(=O)O)CCN(CC(=O)[O-])CC1.[Gd+3]` [Dotarem, Gd-DOTA, reference compound], in data set [1], the R1 was found to be 3.59 ± 0.17 mM⁻¹ s⁻¹, the R2 was determined as 3.87 ± 0.20 mM⁻¹ s⁻¹, the “R1 in 0.67 mM HSA” value was 4.05 ± 0.13 mM⁻¹ s⁻¹ and the “R2 in 0.67 mM HSA” value is 4.30 ± 0.25 mM⁻¹ s⁻¹.
